The source of these data is ChEMBL document CHEMBL4680321, “Novel indolylarylsulfone derivatives as covalent HIV-1 reverse transcriptase inhibitors specifically targeting the drug-resistant mutant Y181C” (Bioorg Med Chem, 2021).

Active and inactive are the calls of the source. No cut-off for these calls is given here. Where only a bound is given, the exact number is not on record here.

For series [1], the system named is Human immunodeficiency virus 1. In words: Antiviral activity against HIV-3B infected in human MT-4 cells assessed as reduction in virus-induced cytopathic effect incubated for 5 days by MTT assay. In kind it is functional, organism-based. The settings on record: Human immunodeficiency virus 1, 3B, MT4, 120 h. A general note: Damage to the host cells serves as the signal in cytopathic effect assays.

Series [2] relates to Human immunodeficiency virus 2. The series is described as follows: Antiviral activity against HIV2 ROD infected in human MT-4 cells assessed as reduction in virus-induced cytopathic effect incubated for 5 days by MTT assay. The class given is functional, organism-based. The settings on record: MT4, time 5.0 day.
The nature of series [3]: Cytotoxicity against human MT4 cells assessed as reduction in cell viability incubated for 5 days by MTT assay. In kind it is cell-based. The note with it: time 5 day. In general terms: Tetrazolium assays rely on reduction of a dye to a coloured formazan, in cell work by metabolically active cells.
The target of series [4] is Human immunodeficiency virus type 1 reverse transcriptase (Human immunodeficiency virus 1, UniProt Q72547). In words: Inhibition of recombinant HIV-1 BH10 reverse transcriptase using D38/[32P]25PGA as template-primer incubated for 5 mins in presence of DTT followed by dTTP addition and measured after 15 to 30 sec by nucleotide incorporation assay. Also noted: species or system Human immunodeficiency virus type 1 BH10.

Series [5] has as its system Human immunodeficiency virus 1. The series is described as follows: Antiviral activity against HIV-3B harboring reverse transcriptase Y181C mutant infected in human MT-4 cells assessed as reduction in virus-induced cytopathic effect incubated for 5 days by MTT assay. The settings on record: Human immunodeficiency virus 1, 3B, MT4, 120 h. In kind it is functional, organism-based.

Series [6] in a line: Selectivity index, ratio of EC50 for HIV-3B infected in human MT-4 cells to EC50 for HIV-3B harboring reverse transcriptase Y181C mutant infected in human MT-4 cells. The class given is functional, Human immunodeficiency virus 1.
Series [7] is described as follows: Stability of compound in PBS buffer at pH 7.4 at 2.5 mM incubated for 24 hrs by reverse phase HPLC analysis. The class given is physicochemical. The note with it: pH 7.4, 24 h, 2500 µM.
Series [8] is described as follows: Stability of compound in PBS buffer at pH 2 at 2.5 mM incubated for 24 hrs by reverse phase HPLC analysis. The class given is physicochemical. The note with it: pH 2, 24 h, 2500 µM.

For `C=CC(=O)N1CCC[C@@H](NS(=O)(=O)c2c(C(N)=O)[nH]c3ccc(Br)cc23)C1`, the half-maximal effective concentration (EC50) in series [1] is over 43.6 µM. The result in series [2] was inactive. Moreover, the CC50 at 120 h in series [3] turned out to be 43.6 µM.

In the case of `C=CS(=O)(=O)N[C@@H]1CCN(S(=O)(=O)c2c(C(N)=O)[nH]c3ccc(Br)cc23)C1`, the EC50 in series [1] is over 2.1 µM. For the same compound, in series [2], the result was inactive. The CC50 at 120 h in series [3] is 2.1 µM.

`Cc1cc(/C=C/C#N)cc(C)c1Nc1ccnc(Nc2ccc(C#N)cc2)n1` [RILPIVIRINE]: the 50% effective concentration (EC50) in series [1] worked out at 0.01 µM.

Turning to `C=CS(=O)(=O)NC1CCN(S(=O)(=O)c2c(C(N)=O)[nH]c3ccc(Br)cc23)CC1`, in series [1], the 50% effective concentration (EC50) is over 6.5 µM. Besides, the result in series [2] was inactive. Besides, in series [3], the cytotoxic concentration (CC50) at 120 h came to 6.5 µM.

In the case of `C=CC(=O)N1CC[C@H](NS(=O)(=O)c2c(C(N)=O)[nH]c3ccc(Br)cc23)C1`, in series [1], the EC50 is over 155 µM. Besides, the outcome in series [2] was inactive. For the same compound, the CC50 at 120 h in series [3] turned out to be 155 µM.

`C=CC(=O)N[C@@H]1CCN(S(=O)(=O)c2c(C(N)=O)[nH]c3ccc(Br)cc23)C1`: in series [1], the EC50 was over 178 µM. For the same compound, the result in series [2] was inactive. Further, the CC50 at 120 h in series [3] was 178 µM.

On to `C=CS(=O)(=O)N1CCC[C@@H](NS(=O)(=O)c2c(C(N)=O)[nH]c3ccc(Br)cc23)C1`, for which the EC50 is over 29 µM in series [1] and 40.7 µM in series [5]. In addition, in series [2], the outcome was inactive. For the same compound, the CC50 at 120 h in series [3] is 29 µM. Moreover, the IC50 in series [4] was over 100 µM. In addition, the “Ratio EC50” value in series [6] was 7.7.

Regarding `C=CS(=O)(=O)N1CC[C@H](NS(=O)(=O)c2c(C(N)=O)[nH]c3ccc(Br)cc23)C1`, the EC50 in series [1] came to 9.74 µM; in series [5], 22 µM. For the same compound, in series [2], the outcome was inactive. Moreover, the CC50 at 120 h in series [3] was found to be 16 µM. Besides, the Stabilty entry in series [7] and in series [8] was “Stable” throughout. In series [4], the IC50 was over 100 µM. Also, the “Ratio EC50” value in series [6] stood at 9.3.

In the case of `C=CC(=O)N1CC[C@@H](NS(=O)(=O)c2c(C(N)=O)[nH]c3ccc(Br)cc23)C1`, the concentration for a half-maximal effect (EC50) in series [1] was over 51.8 µM. Also, the outcome in series [2] was inactive. The half-maximal cytotoxic concentration (CC50) at 120 h in series [3] was determined as 51.8 µM.

On to `Cc1cc(C#N)cc(C)c1Oc1nc(Nc2ccc(C#N)cc2)nc(N)c1Br` [ETRAVIRINE], for which, in series [1], the EC50 is 0.01 µM.

In the case of `C=CC(=O)NC1CCN(S(=O)(=O)c2c(C(N)=O)[nH]c3ccc(Br)cc23)CC1`, the EC50 in series [1] was determined as 125 µM. Also, the outcome in series [2] was inactive. Also, in series [3], the half-maximal cytotoxic concentration (CC50) at 120 h is over 274 µM.

Turning to `O=C1Nc2ccc(Cl)cc2[C@@](C#CC2CC2)(C(F)(F)F)O1` [EFAVIRENZ], the outcome in series [2] was inactive. In addition, the CC50 at 120 h in series [3] was over 6.3 µM.

On to `NC(=O)c1[nH]c2ccc(Br)cc2c1S(=O)(=O)N1CCCC1`, for which, in series [1], the EC50 came out at 3.6 µM. Besides, the result in series [2] was inactive. For the same compound, the CC50 at 120 h in series [3] is 35.3 µM. The IC50 in series [4] was 0.48 µM.

Broadly, the EC50 is the concentration needed to bring the measured effect to its halfway point. A word on the CC50: it is the concentration at which the toxic effect on the cells reaches its halfway point. For orientation: IC50 means the midpoint of a concentration-inhibition curve.
